# Results: ChEMBL document CHEMBL1145218, “QSAR study on pK(a) vis-à-vis physiological activity of sulfonamides: a dominating role of surface tension (inverse steric parameter)” (Bioorg Med Chem Lett, 2005)
# Assay: pKa value
# Format: physicochemical
row,Structure (SMILES),pKa
1,O=S(=O)(Nc1ccc(Cl)cc1)c1ccc(F)cc1,8.61
2,O=[N+]([O-])c1cccc(NS(=O)(=O)c2ccc(Br)cc2)c1,7.42
3,COc1ccc(S(=O)(=O)Nc2ccccc2)cc1,9.42
4,O=[N+]([O-])c1ccc(S(=O)(=O)Nc2cccc([N+](=O)[O-])c2)cc1,5.51
5,O=[N+]([O-])c1cccc(NS(=O)(=O)c2ccc(F)cc2)c1,7.85
6,O=S(=O)(Nc1ccccc1)c1ccc(F)cc1,8.9
7,Cc1ccc(NS(=O)(=O)c2ccc([N+](=O)[O-])cc2)cc1,6.78
8,COc1ccc(S(=O)(=O)Nc2ccc(F)cc2)cc1,9.32
9,O=S(=O)(Nc1ccc(F)cc1)c1ccc(Cl)cc1,8.41
10,O=S(=O)(Nc1ccc(F)cc1)c1ccc(Br)cc1,8.38
11,O=S(=O)(Nc1ccccc1)c1ccc(Br)cc1,8.5
12,O=[N+]([O-])c1cccc(NS(=O)(=O)c2ccc(Cl)cc2)c1,7.51
13,O=S(=O)(Nc1ccc(Cl)cc1)c1ccc(Cl)cc1,8.3
14,O=[N+]([O-])c1cccc(NS(=O)(=O)c2ccccc2)c1,7.93
15,O=S(=O)(Nc1ccc(F)cc1)c1ccc(F)cc1,8.73
16,O=S(=O)(Nc1ccccc1)c1ccc(Cl)cc1,8.47
17,O=S(=O)(Nc1ccccc1)c1ccccc1 [PHENYL(PHENYLSULFONYL)AMINE],9.1
18,O=S(=O)(Nc1ccccc1)c1cccc(Br)c1,8.25
19,O=[N+]([O-])c1ccc(S(=O)(=O)Nc2ccc(F)cc2)cc1,6.45
20,COc1ccc(S(=O)(=O)Nc2ccc(Cl)cc2)cc1,9.19
21,O=[N+]([O-])c1cccc(S(=O)(=O)Nc2ccccc2)c1,7.5
22,COc1ccc(S(=O)(=O)Nc2cccc([N+](=O)[O-])c2)cc1,8.44
23,Cc1ccc(S(=O)(=O)Nc2cccc([N+](=O)[O-])c2)cc1,8.27
24,O=S(=O)(Nc1ccc(Cl)cc1)c1ccc(Br)cc1,8.24
25,O=[N+]([O-])c1ccc(S(=O)(=O)Nc2ccc(Cl)cc2)cc1,6.24

# The remaining lines, values ahead:
row,pKa,Structure (SMILES)
1,9.34,Cc1ccc(NS(=O)(=O)c2ccccc2)cc1
2,7.19,O=[N+]([O-])c1cccc(S(=O)(=O)Nc2ccc(Cl)cc2)c1
3,9.65,Cc1ccc(NS(=O)(=O)c2ccc(C)cc2)cc1
4,10.4,Cc1cccc(S(=O)(=O)Nc2ccc(N)cc2)c1
5,10.3,Nc1ccc(NS(=O)(=O)c2ccccc2)cc1
6,7.8,Cc1ccc(NS(=O)(=O)c2cccc([N+](=O)[O-])c2)cc1
7,9.35,Cc1ccc(S(=O)(=O)Nc2ccccc2)cc1
8,8.75,O=S(=O)(Nc1ccc(Cl)cc1)c1ccccc1
9,7.27,O=[N+]([O-])c1cccc(S(=O)(=O)Nc2ccc(F)cc2)c1
10,9.8,COc1ccc(S(=O)(=O)Nc2ccc(C)cc2)cc1
11,8.85,O=S(=O)(Nc1ccc(F)cc1)c1ccccc1
12,9.76,Nc1ccc(NS(=O)(=O)c2ccc(Cl)cc2)cc1
13,8.78,Cc1ccc(NS(=O)(=O)c2ccc(Cl)cc2)cc1
14,10.5,Cc1ccc(S(=O)(=O)Nc2ccc(N)cc2)cc1
15,9.02,Cc1ccc(S(=O)(=O)Nc2ccc(Cl)cc2)cc1
16,9.23,Cc1ccc(NS(=O)(=O)c2ccc(F)cc2)cc1
17,9.2,Cc1ccc(S(=O)(=O)Nc2ccc(F)cc2)cc1
